Reference: BindingDB's records for doi:10.1016/j.ejmech.2014.07.015 (Tianjin University, 2014)
Residues, ends and D or L forms follow the SMILES beside them.

Molecular target: Angiotensin-converting enzyme (Homo sapiens, UniProt P12821)
Test: Inhibition of ACE (unknown origin)

Sequence of Angiotensin-converting enzyme (P12821 whole entry): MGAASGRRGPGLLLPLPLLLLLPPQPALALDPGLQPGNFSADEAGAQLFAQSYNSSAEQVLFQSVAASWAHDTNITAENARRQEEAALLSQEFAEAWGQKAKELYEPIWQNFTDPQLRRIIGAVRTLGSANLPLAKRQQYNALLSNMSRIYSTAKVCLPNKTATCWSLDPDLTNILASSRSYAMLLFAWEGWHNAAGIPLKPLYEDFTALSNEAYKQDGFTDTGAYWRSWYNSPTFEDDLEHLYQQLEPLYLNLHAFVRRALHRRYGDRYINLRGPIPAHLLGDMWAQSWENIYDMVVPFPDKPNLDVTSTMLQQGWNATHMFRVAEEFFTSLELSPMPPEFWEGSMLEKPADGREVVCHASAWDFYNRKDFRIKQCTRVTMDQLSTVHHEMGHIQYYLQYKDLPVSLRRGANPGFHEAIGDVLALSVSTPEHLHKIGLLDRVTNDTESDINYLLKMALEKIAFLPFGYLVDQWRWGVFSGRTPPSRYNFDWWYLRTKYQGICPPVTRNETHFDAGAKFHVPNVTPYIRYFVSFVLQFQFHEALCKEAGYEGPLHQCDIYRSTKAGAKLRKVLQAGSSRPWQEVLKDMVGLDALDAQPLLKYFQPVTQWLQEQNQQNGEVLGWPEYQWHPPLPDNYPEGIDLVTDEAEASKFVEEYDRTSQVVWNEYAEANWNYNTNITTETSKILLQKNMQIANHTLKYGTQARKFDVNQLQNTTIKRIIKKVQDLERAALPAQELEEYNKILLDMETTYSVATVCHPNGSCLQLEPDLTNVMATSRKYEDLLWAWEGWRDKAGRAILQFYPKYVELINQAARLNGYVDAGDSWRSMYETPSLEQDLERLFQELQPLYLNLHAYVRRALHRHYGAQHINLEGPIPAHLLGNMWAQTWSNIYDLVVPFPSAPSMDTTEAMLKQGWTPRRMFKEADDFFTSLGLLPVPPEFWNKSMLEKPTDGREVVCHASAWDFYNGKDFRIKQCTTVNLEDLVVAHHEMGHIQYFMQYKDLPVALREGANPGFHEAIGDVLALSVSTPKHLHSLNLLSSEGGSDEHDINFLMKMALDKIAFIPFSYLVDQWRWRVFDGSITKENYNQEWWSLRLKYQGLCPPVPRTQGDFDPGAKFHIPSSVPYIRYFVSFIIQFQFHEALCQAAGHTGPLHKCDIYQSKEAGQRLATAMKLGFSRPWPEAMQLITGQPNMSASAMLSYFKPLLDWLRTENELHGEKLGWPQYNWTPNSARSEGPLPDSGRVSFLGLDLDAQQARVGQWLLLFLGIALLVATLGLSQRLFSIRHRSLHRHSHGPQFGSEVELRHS

| Compound | IC50 [µM] |
| --- | --- |
| CC(C)C[C@H](N)C(=O)N[C@@H](Cc1ccc(O)cc1)C(=O)O | 32.3 |
| CC[C@H](C)[C@H](N)C(=O)N[C@@H](Cc1c[nH]c2ccccc12)C(=O)O | 4.67 |
| N=C(N)NCCC[C@H](N)C(=O)N[C@@H](Cc1ccccc1)C(=O)O | 93.3 |
| CC(C)[C@H](NC(=O)[C@H](C)N)C(=O)NCC(=O)N1CCC[C@H]1C(=O)O (H-AVGP-OH) | 3.09 |
| NC(N)=NCCC[C@H](N)C(=O)N1CCC[C@H]1C(=O)O (H-Arg-Pro-OH) | 20.8 |
| NC(N)=NCCC[C@H](N)C(=O)N[C@@H](Cc1c[nH]c2ccccc12)C(=O)O (H-Arg-Trp-OH) | 15.8 |
| NC(=O)C[C@H](N)C(=O)N[C@@H](Cc1ccccc1)C(=O)O (H-Asn-Phe-OH) | 46.7 |
| CC(C)C[C@H](NC(=O)[C@@H](N)CC(=O)O)C(=O)N1CCC[C@H]1C(=O)O (H-Asp-Leu-Pro-OH) | 4.78 |
| CC(C)[C@H](NC(=O)[C@@H](N)Cc1ccccc1)C(=O)N[C@@H](C)C(=O)N1CCC[C@H]1C(=O)O (H-FVAP-OH) | 10 |
| C[C@H](NC(=O)[C@H](Cc1c[nH]c2ccccc12)NC(=O)CN)C(=O)N1CCC[C@H]1C(=O)O (H-GWAP-OH) | 3.89 |
| N=C(N)NCCC[C@H](NC(=O)CN)C(=O)N1CCC[C@H]1C(=O)O (H-Gly-Arg-Pro-OH) | 19.9 |
| CC[C@H](C)[C@H](N)C(=O)N[C@@H](CCC(=O)O)C(=O)N1CCC[C@H]1C(=O)O (H-Ile-Glu-Pro-OH) | 1.58 |
| CC[C@H](C)[C@H](N)C(=O)N[C@@H](CCCCN)C(=O)N1CCC[C@H]1C(=O)O (H-Ile-Lys-Pro-OH) | 6.91 |
| CC(C)C[C@H](N)C(=O)N[C@@H](C)C(=O)N1CCC[C@H]1C(=O)O (H-Leu-Ala-Pro-OH) | 3.46 |
| CC(C)C[C@H](N)C(=O)N[C@@H](CC(N)=O)C(=O)N1CCC[C@H]1C(=O)O (H-Leu-Asn-Pro-OH) | 57.5 |
| CC(C)C[C@H](N)C(=O)N[C@@H](CCC(=O)O)C(=O)N1CCC[C@H]1C(=O)O (H-Leu-Glu-Pro-OH) | 1.9 |
| CC(C)C[C@H](N)C(=O)N[C@@H](CCCCN)C(=O)N1CCC[C@H]1C(=O)O (H-Leu-Lys-Pro-OH) | 3.98 |
| CC(C)C[C@H](N)C(=O)N[C@@H](CO)C(=O)N1CCC[C@H]1C(=O)O (H-Leu-Ser-Pro-OH) | 1.69 |
| CC(C)C[C@H](N)C(=O)N[C@@H](Cc1ccc(O)cc1)C(=O)N1CCC[C@H]1C(=O)O (H-Leu-Tyr-Pro-OH) | 6.6 |
| CSCC[C@H](N)C(=O)N[C@@H](CC(N)=O)C(=O)N1CCC[C@H]1C(=O)O (H-Met-Asn-Pro-OH) | 66 |
| C[C@H](NC(=O)[C@@H](N)Cc1ccccc1)C(=O)N1CCC[C@H]1C(=O)O (H-Phe-Ala-Pro-OH) | 3.8 |
| NC(=O)CC[C@H](NC(=O)[C@@H](N)Cc1ccccc1)C(=O)N1CCC[C@H]1C(=O)O (H-Phe-Gln-Pro-OH) | 12 |

| Compound | IC50 [µM] |
| --- | --- |
| N[C@@H](Cc1ccccc1)C(=O)N[C@@H](CCC(=O)O)C(=O)N1CCC[C@H]1C(=O)O (H-Phe-Glu-Pro-OH) | 12 |
| CC(C)[C@H](N)C(=O)N[C@@H](CO)C(=O)N[C@@H](CO)C(=O)N1CCC[C@H]1C(=O)O (H-VSSP-OH) | 10 |
| CC(C)[C@H](N)C(=O)N[C@@H](CCCNC(=N)N)C(=O)N1CCC[C@H]1C(=O)O (H-Val-Arg-Pro-OH) | 2.18 |
| CC(C)[C@H](N)C(=O)NCC(=O)N1CCC[C@H]1C(=O)O (H-Val-Gly-Pro-OH) | 26.3 |
| CSCC[C@H](NC(=O)[C@@H](N)C(C)C)C(=O)N1CCC[C@H]1C(=O)O (H-Val-Met-Pro-OH) | 28.8 |
| CC(C)[C@H](N)C(=O)N[C@@H](CO)C(=O)N1CCC[C@H]1C(=O)O (H-Val-Ser-Pro-OH) | 10 |
| C[C@H](N)C(=O)N[C@@H](Cc1ccccc1)C(=O)O [2-(2-Amino-propionylamino)-3-phenyl-propionic acid] | 75.8 |
| NCC(=O)N[C@@H](Cc1c[nH]c2ccccc12)C(=O)O [2-((S)-2-Amino-acetylamino)-3-(1H-indol-3-yl)-propionic acid] (H-Gly-Trp-OH) | 25.1 |
| CC[C@H](C)[C@H](N)C(=O)N[C@@H](Cc1ccc(O)cc1)C(=O)O [(S)-2-((S)-2-Amino-3-(S)-methyl-pentanoylamino)-3-(4-hydroxy-phenyl)-propionic acid] (H-Ile-Tyr-OH) | 6.16 |
| CC(C)[C@H](N)C(=O)N[C@@H](Cc1ccccc1)C(=O)O [(S)-2-((S)-2-Amino-3-methyl-butyrylamino)-3-phenyl-propionic acid] (H-Val-Phe-OH) | 9.12 |
| C[C@H](N)C(=O)N[C@@H](Cc1c[nH]c2ccccc12)C(=O)O [(S)-2-((S)-2-Amino-propionylamino)-3-(1H-indol-3-yl)-propionic acid] (H-Ala-Trp-OH) | 12 |
| C[C@H](N)C(=O)N[C@@H](Cc1ccc(O)cc1)C(=O)O [(S)-2-((S)-2-Amino-propionylamino)-3-(4-hydroxy-phenyl)-propionic acid] (H-Ala-Tyr-OH) | 19 |
| CC(C)[C@H](N)C(=O)N[C@@H](Cc1ccc(O)cc1)C(=O)O [Ang(3-4)] (H-Val-Tyr-OH) | 15.8 |
| CC(C)C[C@H](N)C(=O)N[C@@H](CCC(N)=O)C(=O)N1CCC[C@H]1C(=O)O [CHEBI:73270] (H-Leu-Gln-Pro-OH) | 1.9 |
| NC(=O)C[C@H](N)C(=O)N[C@@H](Cc1ccc(O)cc1)C(=O)O [CHEBI:73427] (H-Asn-Tyr-OH) | 32.3 |
| N[C@@H](CC(=O)O)C(=O)N[C@@H](Cc1ccc(O)cc1)C(=O)O [CHEBI:73455] (H-Asp-Tyr-OH) | 100 |
| CC(C)C[C@H](N)C(=O)N[C@@H](Cc1c[nH]c2ccccc12)C(=O)O [CHEBI:73590] | 17.3 |
| NCCCC[C@H](N)C(=O)N[C@@H](Cc1ccccc1)C(=O)O [CHEBI:73605] | 28.1 |
| N[C@@H](Cc1ccccc1)C(=O)N[C@@H](Cc1ccc(O)cc1)C(=O)O [CHEBI:73637] (H-Phe-Tyr-OH) | 25.1 |
| N[C@@H](CO)C(=O)N[C@@H](Cc1ccc(O)cc1)C(=O)O [CHEBI:73652] (H-Ser-Tyr-OH) | 66 |
| N=C(N)NCCC[C@H](N)C(=O)N[C@@H](Cc1ccc(O)cc1)C(=O)O [CHEBI:73822] (H-Arg-Tyr-OH) | 51.2 |
| N[C@@H](Cc1c[nH]cn1)C(=O)N[C@@H](Cc1ccc(O)cc1)C(=O)O [CHEBI:74059] (H-His-Tyr-OH) | 26.3 |

| Compound | IC50 [µM] |
| --- | --- |
| NCCCC[C@H](N)C(=O)N1CCC[C@H]1C(=O)O [CHEBI:74567] (H-Lys-Pro-OH) | 21.8 |
| CSCC[C@H](N)C(=O)N[C@@H](Cc1ccccc1)C(=O)O [CHEBI:74708] (H-Met-Phe-OH) | 44.6 |
| CSCC[C@H](N)C(=O)N[C@@H](Cc1c[nH]c2ccccc12)C(=O)O [CHEBI:74709] (H-Met-Trp-OH) | 10 |
| C[C@@H](O)[C@H](N)C(=O)N[C@@H](Cc1ccccc1)C(=O)O [CHEBI:74862] (H-Thr-Phe-OH) | 89.1 |
| CC[C@H](C)[C@H](N)C(=O)N[C@@H](C)C(=O)N1CCC[C@H]1C(=O)O [Ile-Ala-Pro] (H-Ile-Ala-Pro-OH) | 2.69 |
| H-AVPYP-OH | 79.4 |
| H-DYGLYP-OH | 61.6 |
| H-FFVAP-OH | 6.02 |
| H-IAYKP-OH | 2.18 |
| H-LAYFYP-OH | 64.5 |
| H-LHLPAP-OH | 6.02 |
| H-LHLPGP-OH | 1.9 |
| H-LHLPLP-OH | 3.71 |
| H-LHLPYP-OH | 2.29 |
| H-LHLWLP-OH | 8.91 |
| H-LHLYLP-OH | 19 |
| H-RPQIPP-OH | 45.7 |
| H-SKVPP-OH | 74.1 |
| H-VHLAP-OH | 4.46 |
| H-VHLPP-OH | 18.1 |
| H-VLPIP-OH | 30.9 |
| H-VLPYP-OH | 36.3 |
